Source: ChEMBL document CHEMBL1158322, “New Terpenylated Dihydrochalcone Derivatives Isolated from Mitrella kentii” (J Nat Prod, 1997)
In brackets after ≈: the same amount, converted by molar mass.

System: NSCLC
Assay: Cytotoxicity against human NSCLC cells by MTT assay
Type: functional, cell-based

CC1=C[C@H](c2c(O)cc(O)c(C(=O)CCc3ccccc3)c2O)[C@@H](C(C)C)CC1
IC50: > 30 µg/mL

CC1=C[C@H](c2c(O)c(C(=O)CCc3ccccc3)c(O)c([C@H]3C=C(C)CC[C@@H]3C(C)C)c2O)[C@@H](C(C)C)CC1
IC50: > 30 µg/mL

CC1=C[C@H](c2c(O)cc(O)c(C(=O)CCc3ccccc3)c2O)[C@H](C(C)C)CC1 [LINDERATIN]
IC50: 3.8 µg/mL (≈ 9.63 µM)

CC1=C[C@H](c2c(O)c(C(=O)CCc3ccccc3)c(O)c([C@H]3C=C(C)CC[C@H]3C(C)C)c2O)[C@H](C(C)C)CC1 [NEOLINDERATIN]
IC50: > 30 µg/mL
